A short description of test [1]: arterial pressure in the anesthetized rabbit. The class given is in vivo. To be noted: 1 mM solution infused in an ear vein, 0.02 to 2.2 ml/min. The protocol:
A 1 mM solution of S-nitrosocaptopril was infused in an ear vein of the rabbit at rates from 0.02 to 2.2 ml/min and the phasic and mean arterial pressure recorded in the femoral artery.

Test [2] concerns bovine femoral artery, contraction to angiotensin II. In words: contraction of the bovine femoral artery to angiotensin II. As for the experimental part:
The data are expressed as a percentage of the maximal response to norepinephrine (10^-4 M) and are shown as mean ±SEM in each group (n=6).
(§1) Blood Vessel Preparation. Bovine coronary or femoral arteries were obtained from an abattoir immediately after sacrifice of two- to four-week-old calves. Immediately after removal, the vessel was placed in ice-cold physiologic salt solution (PSS) containing 118.3 mM NaCl, 4.7 mM KCl, 2.5 mM CaCl2, 1.2 mM MgSO4, 1.2 mM KH2 PO4, 25.0 mM NaHCO3, 11.1 mM glucose, and 0.026 mM calcium disodium (ethylenedinitrilo)-tetraacetate. The vessels were then cleaned of adventitial tissue and cut into rings of approximately 5 mm lengths. When called for by the protocol, endothelium was removed from a ring by gently rubbing the luminal surface with a watchmaker's forceps. Vascular rings with intact endothelium were then suspended in organ chambers containing 25 ml of PSS at 37° aerated with 95% O2 -5% CO2. The rings were connected to force transducers (Grass FT03C, Quincy, Mass.) and changes in isometric force recorded continuously (Grass Polygraph Model 79B) over a period of 90 minutes. The optimal length-tension relationship was determined for each ring by observing the response to 10^-6 M norepinephrine after increments in tension of 0.5 gm. The functional integrity of the endothelium was assessed by contracting the vessel with 10^-6 M norepinephrine and then observing the response to 3×10^-7 M acetylcholine chloride.

The target in another test is T1, ACE (Rattus norvegicus, UniProt P47820).
T1 sequence (P47820 36-1313): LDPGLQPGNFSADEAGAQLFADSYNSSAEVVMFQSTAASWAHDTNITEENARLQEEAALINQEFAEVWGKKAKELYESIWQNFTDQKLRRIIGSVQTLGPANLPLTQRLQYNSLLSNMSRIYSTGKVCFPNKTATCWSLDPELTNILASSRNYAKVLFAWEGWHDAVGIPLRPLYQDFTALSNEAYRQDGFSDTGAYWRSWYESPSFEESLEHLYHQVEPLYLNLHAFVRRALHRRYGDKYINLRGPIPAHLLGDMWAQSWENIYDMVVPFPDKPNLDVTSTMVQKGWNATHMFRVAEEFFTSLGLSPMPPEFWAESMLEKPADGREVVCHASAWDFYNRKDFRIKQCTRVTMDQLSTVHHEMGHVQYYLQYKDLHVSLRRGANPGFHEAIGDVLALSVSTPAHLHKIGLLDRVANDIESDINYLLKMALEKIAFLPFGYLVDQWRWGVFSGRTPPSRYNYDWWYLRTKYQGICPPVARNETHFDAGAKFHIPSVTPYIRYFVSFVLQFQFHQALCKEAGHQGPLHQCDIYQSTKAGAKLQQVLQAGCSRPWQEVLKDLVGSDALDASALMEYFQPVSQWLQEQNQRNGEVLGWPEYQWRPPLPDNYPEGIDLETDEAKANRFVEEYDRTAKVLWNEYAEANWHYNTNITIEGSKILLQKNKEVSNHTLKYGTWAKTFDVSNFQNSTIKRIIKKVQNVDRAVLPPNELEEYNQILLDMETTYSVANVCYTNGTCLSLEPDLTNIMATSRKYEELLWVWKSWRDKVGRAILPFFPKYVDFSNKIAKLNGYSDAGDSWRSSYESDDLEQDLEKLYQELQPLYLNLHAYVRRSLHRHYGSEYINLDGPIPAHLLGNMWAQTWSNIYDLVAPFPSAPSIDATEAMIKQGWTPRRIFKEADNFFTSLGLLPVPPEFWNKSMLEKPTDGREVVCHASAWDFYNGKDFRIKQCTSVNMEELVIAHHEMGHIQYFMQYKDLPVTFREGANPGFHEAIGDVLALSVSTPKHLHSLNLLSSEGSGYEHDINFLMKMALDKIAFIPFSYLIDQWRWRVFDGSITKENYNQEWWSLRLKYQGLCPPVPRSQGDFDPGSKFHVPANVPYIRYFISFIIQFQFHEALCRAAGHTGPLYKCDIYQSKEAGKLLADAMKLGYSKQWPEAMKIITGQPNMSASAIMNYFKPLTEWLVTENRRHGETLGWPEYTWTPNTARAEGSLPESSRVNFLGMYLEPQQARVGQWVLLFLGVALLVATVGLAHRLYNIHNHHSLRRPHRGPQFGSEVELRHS
In words: ACE inhibition, rat lung source of ACE. It is filed as biochemical. Conditions: 10^-10 to 10^-8.

Test [3] deals with bovine femoral artery, response to bradykinin. In words: response of the bovine femoral artery to bradykinin. To be noted: 10^-6 M. As for the experimental part:
as §1
In the bovine femoral artery contracted with a concentration of norepinephrine inducing a half-maximal response, bradykinin induced a biphasic response.

Test [4] has as its system cGMP (and cAMP) in vascular rings. In words: cGMP (and cAMP) levels in vessel ring segments. It is filed as cell-based. Conditions: 10^-5 M, one minute. The protocol:
Since the postulated mechanism by which the nitrosothiol moiety of S-nitrosocaptopril directly relaxes vascular smooth muscle and attenuates the platelet aggregation response is believed to be through activation of soluble guanylate cyclase, cGMP (and cAMP) levels were measured in vessel ring segments and in platelets incubated with 10^-5 M S-nitrosocaptopril.

Procedure for ACE: Under the conditions of this assay (0.1M potassium phosphate, pH 8.3, 0.3M NaCl at 37°), ACE preparations generated 6.32 nmoles of product/mg protein/min.

For the compound `C[C@H](CSN=O)C(=O)N1CCC[C@H]1C(=O)O` [S-nitrosocaptopril], the “effect on blood pressure (in words)” value in test [1] was “clear decrease in blood pressure”. In addition, the “shift rightward in the dose response curve to angiotensin II” value in test [2] came out at 5 fold. Besides, the “responses to angiotensin II in the presence of S-nitrosocaptopril (in words)” value in test [2] (10^-6 M, FIG. 10) is on record as “significantly less than control”. In addition, the “ACE inhibition (in words, FIG. 6)” value on ACE is on record as “almost complete inhibition of ACE”. Besides, the “effect on the response to bradykinin (in words)” value in test [3] is listed as “Neither response to bradykinin was affected”. In addition, in test [4], the “cAMP levels, vessel rings (in words)” value is recorded as “did not change from basal levels” and the “cGMP level, vascular rings” value turned out to be 0.0375 pmol/mg tissue. In addition, the fold induction at 10 µM in test [4] (Bos taurus, 1 min, read-out: increase of cGMP levels, vascular rings) is 36.5.
